# Assay results taken from patent US20040157802A1, “Anti-microbial agents derived from methionine sulfoximine analogues” (priority 2002, published 2004).
# “And” between values parts separate entries of the source, which are not always exact repeats. Equal values may be shown once.
# Columns and labels:
# [1] = BSO at doses that fully inhibit glutathione synthesis, guinea pigs; cited from earlier work
# M. tuberculosis Erdman = experiment: M. tuberculosis growth in broth culture (CFU); assay type: cell-based; settings: for Inhibition of growth of M. tuberculosis in broth culture: 10, 100 or 1000 μM, 6 weeks; for Inhibition of growth of M. tuberculosis in broth culture / Inhibition of M. tuberculosis in broth culture relative to MSO: Example 7; for Efficacy against M. tuberculosis growth in broth culture in comparison with MSO: 10, 100, 1000 μM, Example 6, FIG. 4; for Inhibition of M. tuberculosis in broth culture relative to MSO: at each of 10, 100, 1000 μM
# [2] = cited from earlier work
# [3] = test system: M. tuberculosis Erdman in human macrophages (THP-1 cells); settings: 20, 200, 2000 μM, FIG. 5
# [4] = molecular target: T1, mammalian gamma-glutamylcysteine synthetase (γ-GCS) (Homo sapiens, UniProt P48506); settings: cited from earlier work
# T1 sequence (P48506 1-637): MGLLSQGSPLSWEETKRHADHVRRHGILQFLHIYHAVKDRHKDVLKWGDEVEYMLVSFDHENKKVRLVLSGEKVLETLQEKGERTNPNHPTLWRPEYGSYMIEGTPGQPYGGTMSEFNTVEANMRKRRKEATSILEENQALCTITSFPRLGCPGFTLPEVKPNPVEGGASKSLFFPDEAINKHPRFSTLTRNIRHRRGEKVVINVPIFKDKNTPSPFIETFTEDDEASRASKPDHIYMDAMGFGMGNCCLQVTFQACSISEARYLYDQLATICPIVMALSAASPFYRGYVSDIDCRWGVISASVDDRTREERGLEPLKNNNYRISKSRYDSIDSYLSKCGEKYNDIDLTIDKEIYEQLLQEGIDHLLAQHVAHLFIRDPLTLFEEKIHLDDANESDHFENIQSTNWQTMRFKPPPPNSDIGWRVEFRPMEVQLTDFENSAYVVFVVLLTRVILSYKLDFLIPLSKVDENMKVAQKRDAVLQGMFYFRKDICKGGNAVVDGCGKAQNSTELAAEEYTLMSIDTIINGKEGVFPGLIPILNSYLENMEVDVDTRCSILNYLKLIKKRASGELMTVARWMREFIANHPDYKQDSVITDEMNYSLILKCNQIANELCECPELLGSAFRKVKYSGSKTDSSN
# [5] = molecular target: mammalian glutamine synthetase (MGS) (Homo sapiens, UniProt P15104); settings: cited from earlier work
# Sequence of mammalian glutamine synthetase (MGS) (P15104 2-373 limits assumed): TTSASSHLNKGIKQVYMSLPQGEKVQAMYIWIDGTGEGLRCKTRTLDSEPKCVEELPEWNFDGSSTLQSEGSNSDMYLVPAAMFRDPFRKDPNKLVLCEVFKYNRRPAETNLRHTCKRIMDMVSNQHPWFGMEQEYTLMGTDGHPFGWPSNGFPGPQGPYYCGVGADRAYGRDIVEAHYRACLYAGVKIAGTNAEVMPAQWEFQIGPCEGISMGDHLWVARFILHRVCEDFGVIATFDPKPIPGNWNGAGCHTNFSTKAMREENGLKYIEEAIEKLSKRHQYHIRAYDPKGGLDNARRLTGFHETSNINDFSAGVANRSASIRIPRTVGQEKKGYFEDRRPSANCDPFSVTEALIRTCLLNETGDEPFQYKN
# [6] = cited from earlier work; for Estimtated Dose of L Isomer that Induces Convulsions in Mice (Relative to MSO): Table 1; for Estimtated Dose of L Isomer that Induces Convulsions in Mice (Relative to MSO) / Estimated Dose of L Isomer that Induces Convulsions in Mice (Relative to MSO): relative to MSO = 1; for Estimated Dose of L Isomer that Induces Convulsions in Mice (Relative to MSO): Table 3; for Dose that induces convulsions in mice relative to the dose of MSO: α-Et-MSO: convulsions in a minority of mice vs MSO in 100% of mice
# [7] = test system: M. tuberculosis Erdman strain; settings: in vivo
Compound,Inhibition of growth of M. tuberculosis in broth culture (M. tuberculosis Erdman),Metabolism [2],Inhibition of M. tuberculosis growth in human macrophages [3],Efficacy against M. tuberculosis growth in broth culture in comparison with MSO (M. tuberculosis Erdman),Inhibition of M. tuberculosis in broth culture relative to MSO (M. tuberculosis Erdman),Inhibition of γ-GCS [4],Inhibition of mammalian GS [5],Estimtated Dose of L Isomer that Induces Convulsions in Mice (Relative to MSO) [6],Estimated Dose of L Isomer that Induces Convulsions in Mice (Relative to MSO) [6],Dose that induces convulsions in mice relative to the dose of MSO [6],"Protection from weight loss, drug administered alone [7]",further results
"CCCCS(=N)(=O)CCC(N)C(=O)O [BSO, D, L-Buthionine-SR-Sulfoximine, reference compound]",did not,,,,,,,,,,,Animals killed [1]: 100%
O=C1O[C@H]([C@@H](O)CO)C(O)=C1O [ascorbate],,,,,,,,,,,,"Well tolerated total dose of ascorbate (i.p., guinea pigs, 9 mmoles kg^−1 day^−1 not well tolerated): 3 mmol/kg/day"
"CC(N)(CCS(C)(=N)=O)C(=O)O (racemic) [α-Me-MSO, α-methyl-DL-methionine-SR-sulfoximine]",inhibited M. tuberculosis,resistant to metabolism,readily inhibited,as inhibitory to M. tuberculosis growth as MSO,slightly less inhibitory than MSO,inhibit γ-GCS,inhibit mammalian GS,8,8,~8 fold,,
"CS(=N)(=O)CC[C@H](N)C(=O)O (stereo partly drawn) [MSO, L-methionine-SR-sulfoximine]",inhibited M. tuberculosis,,,,,inhibit γ-GCS,inhibit mammalian GS,1,1,,protected animals from weight loss,"Fewer CFU of M. tuberculosis in organs than control animals [7]: approximately 1 log unit; Reduction of CFU of M. tuberculosis compared with control animals [7]: ~0.7 logs; Weight loss compared with untreated control animals [7]: protected from a precipitous decline in weight loss in the final week; Reduction of CFU in the lungs and spleen compared with untreated controls ([7]; ip): 2.5 logs; MTD in the presence of ascorbate relative to MTD in the absence of ascorbate (guinea pig, in vivo): 4 fold; Maximum tolerated dose for guinea pigs infected with M. tuberculosis (guinea pig, in vivo): 1.5 mg/kg/day; Tolerability (guinea pig, in vivo): early weight loss"
"CCC(N)(CCS(C)(=N)=O)C(=O)O (racemic) [α-Et-MSO, α-ethyl-DL-methionine-SR-sulfoximine]",inhibited M. tuberculosis,resistant to metabolism,readily inhibited,as inhibitory to M. tuberculosis growth as MSO,as inhibitory or slightly more inhibitory than MSO,specific to GS,inhibit mammalian GS,>16,≧16,16 fold,,
"NNC(=O)c1ccncc1 [INH, isoniazid]",,,,,,,,,,,protected animals from weight loss,Reduction of CFU in lung and spleen below the level obtained with MSO [7]: ~1.5 logs and ~2.5 logs
